Measured values published in patent US11633434B2, “Topical kits and compositions and use thereof” (priority 2017, dated 2023).
Starred links: 1 amine or outer side, 2 acyl side, 3 side chain; linkers in the order of their positions; H or OH if unused. Positions of bridges follow the written chain, without caps; N, C: chain ends. Non-standard residues stand in square brackets, D forms with d. Residues, ends and D or L forms follow the SMILES beside them. X1 = CC(C)CCCCCCCCC[C@H](CC(=O)[*:1])O[*:2]

How the values were obtained:
C. albicans [1] = assay: Antifungal activity of the formula, disk diffusion method; type: cell-based; conditions: Candida albicans, 48 h, read-out: diameter inhibition zones
Method: The antifungal activity of the bacillus (10^8/ml) in the formula was determined using the disk diffusion method and was compared to that of empty formulation (without bacillus) and of ketoconazole 2% w/v in ethylene glycol (FIG. 11). A lawn of C. albicans (100 μl of 10^7 cells/ml) was spread on yeast extract-peptone-dextrose (YPD) agar petri dishes and tested solutions (10 μl ) were loaded on paper filter disks (6 mm in diameter) placed at the center of each dish and incubated at 37° C. for 48 h.

C. albicans [2] = conditions: reported value; cited from earlier work

| Structure (SMILES) | zone of inhibition at 2 % strength (C. albicans [1]) | synergistic anti-fungal MIC (C. albicans [2]) |
| --- | --- | --- |
| CC(=O)N1CCN(c2ccc(OCC3COC(Cn4ccnc4)(c4ccc(Cl)cc4Cl)O3)cc2)CC1 (centres unmarked) [ketoconazole] | 14 mm |  |
| CC(C)CCCCCCCCC[C@@H]1CC(=O)N[C@@H](CCC(=O)O)C(=O)N[C@@H](CC(C)C)C(=O)N[C@H](CC(C)C)C(=O)N[C@@H](C(C)C)C(=O)N[C@@H](CC(=O)O)C(=O)N[C@H](CC(C)C)C(=O)N[C@@H](CC(C)C)C(=O)O1 [Surfactin C15] (EL[dL]VD[dL]L; linker N-C via X1) |  | 6.25 µg/mL |
